Molecular target: T1, Peptide G (37 LR binding site for laminin, aa 161-180) (Homo sapiens, UniProt P08865)
T1 construct: purchased United Biosystems; host or cells: chemical synthesis
Assay: Intrinsic tryptophan fluorescence binding assay, Peptide G
Conditions: 50 μM Peptide G, titration 0.1 to 100 μM; read-out: EC50, reduction of intrinsic tryptophan fluorescence
Experimental: FIG. 4. Reduction of Tryptophan Fluorescence by C3. 50 μM peptide G or Scramble G was incubated with concentrations of C3 ranging from 100 nM to 100 μM. Intrinsic tryptophan fluorescence was quantified at 350 nm emission (270 nm excitation) and graphed as a function of C3 dose after subtracting baseline C3 fluorescence. GraphPad Prism was used to determine an ECso for tryptophan reduction as described in the method (n=3±SEM).
Cell Viability Screen. PC-3, Endo, TC2-Ras, SH-SY5Y, and LNCaP cells were seeded in 96-well plates at 1,500 cells per well using the Scepter cell counter (EMD Millipore). […] Cell viability was measured by using the cell counting kit-8 (CCK-8, Dojindo). […] CCK-8 absorbance was measured at 450 nm using a GloMax Multimode Reader (Promega). Readings were performed the day after seeding to normalize for variations in cell seeding and after 96 hours of compound treatment. After each reading, CCK-8 media was removed and replaced with media containing compound as described previously. […] As described previously, an initial baseline CCK-8 reading was performed at 24 hours post seeding to correct for variations in seeding density. First, 450 nm values for each well were subtracted from media only readings to correct for baseline absorbance. Then, the 96 hour readings were normalized to their respective 24 hour readings to control for seeding variation. […]

T1 sequence (P08865 161-180 limits assumed): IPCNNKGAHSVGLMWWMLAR

Structure (SMILES): O=C(c1cc(F)cc2c1OCOC2)N1CCN(C2c3ccccc3-c3ccccc32)CC1 [Compound C3, [4-(9h-fluoren-9-yl)piperazino](6-fluoro-4h-1,3-benzodioxin-8-yl)methanone]
- EC50: 16.1 µM
